Measured values reported in PubChem BioAssay AID248 (DTP/NCI, 2004).
“And” between values parts separate entries of the source, which are not always exact repeats. Equal entries are not always repeated. Toxic doses and inconclusive results are not listed. Rule as the data show it: active = T/C of 150% or more; inactive = T/C below 125%.

System: L1210 leukemia ip in BDF1 mice, survival T/C
Assay: NCI In Vivo Anticancer Drug Screen. Data for tumor model L1210 Leukemia (intraperitoneal) in B6D2F1 (BDF1) mice
Conditions: endpoint: mean survival time, higher = longer survival
Summary of the method: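 Ratio derived from survival: compound-dosed mice over vehicle-dosed mice, all bearing a transplantable tumor.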

[1] = dose: 100.0 mg/kg/injection, schedule: Q04DX002 (ip), vehicle: Klucel (hydroxypropylcellulose) (HPC)
[2] = dose: 100.0 mg/kg/injection, schedule: Q01DX001 (ip), vehicle: Klucel (hydroxypropylcellulose) (HPC)
[3] = dose: 100.0 mg/kg/injection, schedule: Q01DX001 (ip), vehicle: saline with Tween-80
[4] = dose: 200.0 mg/kg/injection, schedule: Q01DX001 (ip), vehicle: Klucel (hydroxypropylcellulose) (HPC)
[5] = dose: 200.0 mg/kg/injection, schedule: Q01DX001 (ip), vehicle: saline with Tween-80
[6] = dose: 400.0 mg/kg/injection, schedule: Q01DX001 (ip), vehicle: saline with Tween-80
[7] = dose: 100.0 mg/kg/injection, schedule: Q01DX009 (ip), vehicle: saline with Tween-80
[8] = dose: 100.0 mg/kg/injection, schedule: Q04DX003 (ip), vehicle: saline with Tween-80
[9] = dose: 200.0 mg/kg/injection, schedule: Q01DX009 (ip), vehicle: saline with Tween-80
[10] = dose: 200.0 mg/kg/injection, schedule: Q04DX003 (ip), vehicle: saline with Tween-80
[11] = dose: 400.0 mg/kg/injection, schedule: Q01DX009 (ip), vehicle: saline with Tween-80
[12] = dose: 400.0 mg/kg/injection, schedule: Q04DX003 (ip), vehicle: saline with Tween-80
[13] = dose: 50.0 mg/kg/injection, schedule: Q01DX009 (ip), vehicle: saline
[14] = dose: 100.0 mg/kg/injection, schedule: Q01DX009 (ip), vehicle: saline
[15] = dose: 200.0 mg/kg/injection, schedule: Q01DX009 (ip), vehicle: saline
[16] = dose: 100.0 mg/kg/injection, schedule: Q01DX001 (ip), vehicle: saline
[17] = dose: 200.0 mg/kg/injection, schedule: Q01DX001 (ip), vehicle: saline
[18] = dose: 100.0 mg/kg/injection, schedule: Q04DX002 (ip), vehicle: saline
[19] = dose: 200.0 mg/kg/injection, schedule: Q04DX002 (ip), vehicle: saline

Measured: T/C

CC1CCC2C(C)C3C(CC4C5CC=C6CC(OC7OC(COC8OC(CO)C(OC9OC(C)C(O)C(O)C9O)C(O)C8O)C(O)C(O)C7O)CCC6(C)C5CCC43C)N2C1 (stereo not given)
inactive: dose: 50.0 mg/kg/injection, schedule: Q04DX002 (ip), vehicle: Klucel (hydroxypropylcellulose) (HPC) 105 % of control | [1] 102 % of control

CCc1c(N)nc(N)nc1Cl
inactive: dose: 25.0 mg/kg/injection, schedule: Q01DX Z (ip), vehicle: methylcellulose (MC) 91 % of control

COC1OC2COC(c3ccccc3)OC2C(O)C1NC(C)=O (stereo not given)
inactive: [2] 95 % of control | [3] 101 % of control | [4] 104 % of control | [5] 97 % of control | [6] 98 % of control

COc1ccc(C(=O)/C=C/c2ccc3c(c2)OCO3)cc1
inactive: dose: 100.0 mg/kg/injection, schedule: Q04DX003 (ip), vehicle: Klucel (hydroxypropylcellulose) (HPC) 100 % of control | dose: 200.0 mg/kg/injection, schedule: Q04DX003 (ip), vehicle: Klucel (hydroxypropylcellulose) (HPC) 94 % of control | dose: 400.0 mg/kg/injection, schedule: Q04DX003 (ip), vehicle: Klucel (hydroxypropylcellulose) (HPC) 93 % of control

CC1=CC(C)C(=O)N(CC(C)N2CCCC2)C(C)=C1 (stereo not given)
inactive: dose: 75.0 mg/kg/injection, schedule: Q01DX001 (ip), vehicle: carboxymethylcellulose (CMC) 102 % of control

N#CC(C#N)C1c2ccccc2C([N+](=O)[O-])c2ccccc21 (stereo not given)
inactive: [7] 103 % of control | [8] 88 % of control | [9] 96 % of control | [10] 93 % of control | [11] 98 % of control | [12] 101 % of control

O=[N+]([O-])c1cccc(C=Nc2cccc(Cl)c2)c1
inactive: [1] 96 % of control | dose: 200.0 mg/kg/injection, schedule: Q04DX002 (ip), vehicle: Klucel (hydroxypropylcellulose) (HPC) 100 % of control | dose: 400.0 mg/kg/injection, schedule: Q04DX002 (ip), vehicle: Klucel (hydroxypropylcellulose) (HPC) 100 % of control

CCOC(CNC(=O)c1cccc(S(=O)(=O)F)c1)OCC
inactive: dose: 100.0 mg/kg/injection, schedule: Q04DX003 (ip), vehicle: saline + alcohol 98 % of control | dose: 200.0 mg/kg/injection, schedule: Q04DX003 (ip), vehicle: saline + alcohol 96 % of control

Cc1cc(=S)n(C)c2ccccc12
inactive: dose: 100.0 mg/kg/injection, schedule: Q01DX001 (ip), vehicle: carboxymethylcellulose (CMC) 89 % of control | dose: 200.0 mg/kg/injection, schedule: Q01DX001 (ip), vehicle: carboxymethylcellulose (CMC) 89 % of control | dose: 400.0 mg/kg/injection, schedule: Q01DX001 (ip), vehicle: carboxymethylcellulose (CMC) 96 % of control

CP1(=O)CC2OC2C1 (stereo not given)
inactive: [13] 96 % of control | [14] 89 % of control | [15] 93 % of control

CCC(CO)NC(=O)/C=C/c1ccccc1 (stereo not given)
inactive: [3] 101 % of control | [8] 97 % of control | [5] 94 % of control | [10] 97 % of control | [6] 100 % of control | [12] 91 % of control

CN(C)C(=S)NN
inactive: dose: 1.56 mg/kg/injection, schedule: Q01DX009 (ip), vehicle: saline with Tween-80 111 % of control | dose: 3.12 mg/kg/injection, schedule: Q01DX009 (ip), vehicle: saline with Tween-80 117 % of control

C/C(=C\Cl)CN(C)C
inactive: [8] 97 % of control | [10] 94 % of control

Clc1ccc(-n2cnnn2)cc1
inactive: [16] 98 % of control | [17] 98 % of control

COc1ccc(C)cc1NC(=O)Sc1ccc(Cl)cc1
inactive: dose: 50.0 mg/kg/injection, schedule: Q01DX009 (ip), vehicle: saline with Tween-80 117 % of control | [7] 95 % of control

Cc1ccc(S(=O)(=O)N(C)CCCCC(=O)O)cc1
inactive: [7] 90 % of control | [9] 104 % of control | [11] 93 % of control

C/C=C/C=C\COC(=O)c1ccccc1OCC
inactive: [18] 98 % of control and 107 % of control | [19] 101 % of control and 109 % of control | dose: 400.0 mg/kg/injection, schedule: Q04DX002 (ip), vehicle: saline 109 % of control | dose: 800.0 mg/kg/injection, schedule: Q04DX002 (ip), vehicle: saline 106 % of control

CC1(C)CNC2OC1NCC2(C)C
inactive: dose: 100.0 mg/kg/injection, schedule: Q01DX001 (ip), vehicle: saline sonified 112 % of control | dose: 200.0 mg/kg/injection, schedule: Q01DX001 (ip), vehicle: saline sonified 89 % of control | dose: 400.0 mg/kg/injection, schedule: Q01DX001 (ip), vehicle: saline sonified 95 % of control

CCOC(=O)/C(C)=C\C1C(C)=CCCC1(C)C (stereo not given)
inactive: dose: 100.0 mg/kg/injection, schedule: Q01DX009 (ip), vehicle: Klucel (hydroxypropylcellulose) (HPC) 104 % of control | dose: 200.0 mg/kg/injection, schedule: Q01DX009 (ip), vehicle: Klucel (hydroxypropylcellulose) (HPC) 102 % of control | dose: 400.0 mg/kg/injection, schedule: Q01DX009 (ip), vehicle: Klucel (hydroxypropylcellulose) (HPC) 96 % of control

O=C(O)CCCNC(=O)C(F)(F)F
inactive: [3] 95 % of control and 98 % of control | dose: 100.0 mg/kg/injection, schedule: Q04DX002 (ip), vehicle: saline with Tween-80 101 % of control and 103 % of control | [8] 100 % of control | [5] 95 % of control and 91 % of control | dose: 200.0 mg/kg/injection, schedule: Q04DX002 (ip), vehicle: saline with Tween-80 95 % of control and 92 % of control | [10] 95 % of control and 96 % of control | [6] 96 % of control and 92 % of control | dose: 400.0 mg/kg/injection, schedule: Q04DX002 (ip), vehicle: saline with Tween-80 100 % of control and 108 % of control | [12] 93 % of control and 100 % of control

C=CC(=O)NCNC(C)C (tested in a mixture with another compound)
inactive: dose: 12.5 mg/kg/injection, schedule: Q01DX009 (ip), vehicle: Klucel (hydroxypropylcellulose) (HPC) 97 % of control | dose: 12.5 mg/kg/injection, schedule: Q01DX009 (ip), vehicle: saline 100 % of control and 93 % of control | dose: 25.0 mg/kg/injection, schedule: Q01DX009 (ip), vehicle: Klucel (hydroxypropylcellulose) (HPC) 97 % of control | dose: 25.0 mg/kg/injection, schedule: Q01DX009 (ip), vehicle: saline 95 % of control | dose: 50.0 mg/kg/injection, schedule: Q01DX009 (ip), vehicle: Klucel (hydroxypropylcellulose) (HPC) 90 % of control | [13] 100 % of control

CCOC(=O)c1nc(N)nc(N)c1Oc1ccccc1
inactive: dose: 50.0 mg/kg/injection, schedule: Q01DX001 (ip), vehicle: Klucel (hydroxypropylcellulose) (HPC) 92 % of control | [2] 93 % of control | [4] 92 % of control

CC(C)C(/C=N/N=C(N)N)=N\N=C(N)N
inactive: dose: 15.0 mg/kg/injection, schedule: Q01DX Z (ip), vehicle: methylcellulose (MC) 94 % of control | dose: 30.0 mg/kg/injection, schedule: Q01DX Z (ip), vehicle: methylcellulose (MC) 105 % of control | dose: 60.0 mg/kg/injection, schedule: Q01DX Z (ip), vehicle: methylcellulose (MC) 94 % of control | dose: 120.0 mg/kg/injection, schedule: Q01DX Z (ip), vehicle: methylcellulose (MC) 96 % of control

CCCCS.[Pb]
inactive: [8] 95 % of control | [10] 95 % of control | [12] 96 % of control

COC1OC2COC(c3ccccc3)OC2C(OC)C1OC(=O)c1ccccc1 (stereo not given)
inactive: dose: 100.0 mg/kg/injection, schedule: Q04DX003 (ip), vehicle: saline 93 % of control | dose: 200.0 mg/kg/injection, schedule: Q04DX003 (ip), vehicle: saline 91 % of control | dose: 400.0 mg/kg/injection, schedule: Q04DX003 (ip), vehicle: saline 98 % of control

O=S(O)c1ccc(Cl)cc1
inactive: [14] 101 % of control | [15] 100 % of control | dose: 400.0 mg/kg/injection, schedule: Q01DX009 (ip), vehicle: saline 98 % of control

CCCOCCOCCOC(C)Oc1ccc(OC)cc1 (stereo not given)
inactive: [18] 92 % of control | [19] 101 % of control

Cc1ccc(CCS(=O)(=O)N=[N+]=[N-])cc1
inactive: [16] 101 % of control | [17] 97 % of control | dose: 400.0 mg/kg/injection, schedule: Q01DX001 (ip), vehicle: saline 101 % of control

COc1ccc(-n2c(=O)c(N=Nc3ccccc3C)c(O)n(-c3ccc(C)cc3)c2=S)cc1
inactive: [2] 95 % of control | [4] 97 % of control | dose: 400.0 mg/kg/injection, schedule: Q01DX001 (ip), vehicle: Klucel (hydroxypropylcellulose) (HPC) 97 % of control
